# Data reported in a melting point compilation (Tetko et al.; mined from patent text by program, amines drawn as free bases though some values may be those of a salt).
row,SMILES,melting point
1,COc1ccc(-n2cnc3ccc(-c4nnc(SCc5cccc(F)c5)o4)cc32)cc1,155 to 156 °C
2,Cc1nnc(-c2ccnc(NC(=O)OC(C)(C)C)c2)o1,290 to 291 °C
3,O=C1NCc2c3c(c4[nH]c5ccccc5c4c21)Cc1ccc(C=Cc2ccccn2)cc1-3,> 320 °C
4,C=Cc1c(N)cc(Cl)nc1C(=O)OC,53 to 54 °C
5,Cc1ccc2c(c1)Oc1sc(C)cc1C(=O)N2,211 to 215 °C
6,CSCCOC(=O)N(C)c1nnc(-c2cccnc2)s1,126 to 128 °C
7,COc1cc2c(c(Cl)c1Cl)SCC2O (stereo not drawn),122 to 124 °C
8,CCN(c1nc2c(cc1CN(Cc1cc(C(F)(F)F)cc(C(F)(F)F)c1)c1nnn(C)n1)c(C)nn2C)C1CCCC1,43 to 44 °C
9,COCOc1cc(C(F)(F)F)ccc1-c1cc(Oc2ccc3cccnc3c2)ncn1,98.8 to 99.4 °C
10,CC(=O)CC(=O)CCC(=O)CC(C)=O,62.7 to 64 °C
11,Cc1ccc(C(=O)C2=C(O)C(=O)N(c3ccc(C)nn3)C2c2cccc(C(F)(F)F)c2)cc1 (stereo not drawn),232 °C
12,CC(Oc1nn(-c2ccccc2)cc1-c1ccccc1)C(=O)O (stereo not drawn),175 to 178 °C
13,N#Cc1cc(C#N)cc(Oc2c(C3CC3)nn(CCO)c2C2CC2)c1,115 to 117 °C
14,CC(C)N1C(=O)N=C(SCc2ccccc2)NS1(=O)=O,124 to 130 °C
15,CC1(C)C=C(O)C(=O)C(C)(C)C1,85 to 86 °C
16,N#CCC(=O)Nc1ccc(-c2ncn(-c3ccc(OC(F)(F)F)cc3)n2)cc1,250 to 252 °C
17,O=[N+]([O-])c1cc(S(=O)c2ccccc2)ccc1Cl (stereo not drawn),86 to 87 °C
18,CN(C)c1ccnc2c(NC(=O)c3c(Cl)cccc3Cl)cccc12,215 to 216 °C
19,Cc1c(C(=O)c2ccc(O)cc2)oc2ccc([N+](=O)[O-])cc12,235 °C

row,SMILES,melting point
1,Cc1cccc(SCc2c(CCN(C)C)[nH]c3ccccc23)c1,75 to 78 °C
2,COC(=O)c1ccc(-c2cc(-c3ccc(Cl)cc3)no2)cc1,225 to 226 °C
3,CN1C(=O)[C@H](NC(=O)CCc2ccccc2Cl)N=C(c2ccccc2)c2ccccc21,158 to 160 °C
4,O=c1ccn(CCO)c(C(O)c2ccc3ccccc3c2)c1OCc1ccccc1 (stereo not drawn),110 to 112 °C
5,O=c1[nH]nc2cc(C(c3c(F)ccc(F)c3F)S(=O)(=O)CCC(F)(F)F)c(Cl)cn12 (stereo not drawn),209 to 211 °C
6,Nc1cccc(S(=O)(=O)NCc2ccncc2)c1,139 °C
7,CC(C)[C@H](NC(=O)OCc1ccccc1)C(=O)NC(Cc1ccccc1)C(O)C(Cc1ccccc1)NC(=O)[C@@H](NC(=O)OCc1ccccn1)C(C)C (stereo partly drawn),194 to 195 °C
8,Cc1[nH]c(=O)c(-c2csc(-c3ccnc(NCCNC(C)C)c3)n2)cc1C(=O)NCCNC(C)C,> 260 °C
9,CC(=O)OC1CSC(Oc2cncc(-c3ccc(OC(C)C)cc3)c2)C(OC(C)=O)C1OC(C)=O (stereo not drawn),135 °C
10,CCN1C(=O)C(=O)C(C)=C(C#N)C1=O,159 to 160 °C
11,Brc1ccccc1Oc1nc2ccccc2n2cncc12,180 to 182 °C
12,FN(F)CC1(CN(F)F)COC1,43.5 to 44.5 °C
13,O=C(O)COc1nn(-c2ccccc2)cc1-c1ccccc1,172 °C
14,COc1cc2c(cc1OC)C(c1sc(O)nc1C)=NCC2,114 to 120 °C
15,CCCc1nn(-c2ccc(C(F)(F)F)cn2)cc1CCCO,96 to 97 °C
16,Cc1oc(-c2ccc3ccccc3c2)nc1COc1ccc(C=O)cc1,163 to 164 °C
17,COc1cc(OC)nc(NN)n1,94 °C
18,O=c1oc2cc(Cl)cnc2n1CO,137 to 139 °C
19,N#Cc1cnc2cc(/C=C/CCN3CCOCC3)ccc2c1Nc1ccc(Cl)cc1Cl,129 to 131 °C

row,SMILES,melting point
1,COc1ccc2nc3ccc(C(=O)O)cn3c(=O)c2c1,278 to 290 °C
2,O=C(O)C1=C2OCOc3cccc1c32,125 °C
3,O=C1c2ccccc2-n2cnc(Br)c2[C@@H]2CCCN12,225 to 226 °C
4,CN(CCCCCCCNC(=NCCSCc1csc(NC(=N)N)n1)NC#N)CCN(Cc1ccc(F)cc1)c1ccccn1,118 °C
5,COc1cc(COc2cc3ncnc(Nc4ccc(Cl)cc4F)c3cc2OC)ccn1,202 to 204 °C
6,CC(C)COc1c(-c2ccc(S(N)(=O)=O)cc2)cnn(-c2ccc(F)cc2)c1=O,132 to 136 °C
7,CCOC(=O)C=C(c1ccc(Br)s1)c1ccc(Br)s1,69 to 70 °C
8,Clc1ccc(-c2nc(Br)cnc2OCC2CC2)cc1,86 to 87 °C
9,O=C(NCc1ccc(Cl)cc1)c1cn2c3c(cc(CN4CCOCC4)cc3c1=O)OC(c1ccc(O)cc1)C2 (stereo not drawn),> 260 °C
10,COC(=O)[C@H](O)[C@@H](NC(=O)OC(C)(C)C)c1ccc(N(C)C)cc1,120 °C
11,Clc1cc(Cl)c2oc(Cl)nc2c1,140 to 142 °C
12,N#Cc1cc(N2CCC(N3CCOCC3)CC2)ccc1N,178 to 180 °C
13,CSC1=Nc2ccccc2Cn2nnnc21,105 to 108 °C
14,CCCCOC(=O)N1CCSCC1,72.9 to 78.9 °C
15,N#CC(C(=O)Nc1cccc(F)c1)C(=O)c1nn(-c2ccccc2)c2c1Cc1ccccc1-2 (stereo not drawn),278 to 284 °C
16,O=C1CCc2ccc(OCCCCCl)cc2N1,104 to 106 °C
17,OCc1ccc(C2=C(C3CCCC3)CCC2=NO)cc1,187 to 190 °C
18,CC(=O)Nc1onc(-c2ccccc2)c1Cl,141 to 142 °C
19,N#Cc1cc(-c2ccco2)nc(N)n1,193 to 194 °C

# Second part, the molecule after the results:
row,melting point,SMILES
1,118 to 121 °C,CN(Cc1cc2c(=O)c(C(=O)NCc3ccc(Cl)cc3)cn(C)c2o1)CC(O)c1ccccc1 (stereo not drawn)
2,220 to 230 °C,CCOC(=O)c1cnn(C)c1C(=O)Nc1ccn2nc(-c3ccnc(F)c3)nc2c1
3,260 °C,CC(C)(C)OC(=O)Cn1cc(C[C@@H](N)C(=O)O)c2ccccc21
4,162 °C,Fc1ccc2c(N3CCN(Cc4ccccc4)CC3)n[nH]c2c1
5,122 to 125 °C,O=C(CC(c1cc(F)ccc1F)S(=O)(=O)c1ccc(Cl)cc1)N1CCCC1 (stereo not drawn)
6,155 °C,Cc1c(C(=O)Nc2ccc(N3CCC(N4CCOCC4)CC3)c(C#N)c2)cnn1Cc1ccccc1
7,118 to 120 °C,COC(=O)C(c1ccccc1Cl)N1CCc2sc(OC(=O)C(C)(C)C)cc2C1 (stereo not drawn)
8,88 to 90 °C,CCN1CCCN(c2c(C)cccc2Cl)C1=S
9,81 °C,O=C(CC1=CC(O)CC1=O)Oc1ccc2ccccc2c1 (stereo not drawn)
10,179 to 181 °C,Cc1ccc(Cn2cccc2C(=O)CC(=O)C(=O)O)cc1
11,88 to 89 °C,CC(C)(C)OC(=O)N1CCc2ccc(Nc3nc4c(-c5cc(C(F)(F)F)ccc5Cl)cccn4n3)cc2CC1
12,186 to 188 °C,CCOCc1nc2c(N)nc3cc(-c4cncc(OC)c4)ccc3c2n1CC(C)(C)OCCS(C)(=O)=O
13,82 to 84 °C,CCC(=O)C(CCCCCCOc1ccc(OCc2ccccc2)cc1)C(=O)CC
14,75 to 77 °C,CC(=O)OCC1CC(OC(C)=O)C(n2cc(C(I)=CI)c(=O)[nH]c2=O)O1 (stereo not drawn)
15,118 to 119 °C,CCCCCC(=O)c1cc2c(cc1/C=C/c1ccc(C(=O)O)cc1)C(C)(C)CCC2(C)C
16,265 to 266 °C,CC(C)NC(=O)Nc1c(C(=O)c2ccccc2)[nH]c2cc(Cl)ccc12
17,215 to 217 °C,Cc1nnc(-c2cc3c(OC[C@@H](O)CN4CCC(c5ccc6ccccc6c5)CC4)cccc3[nH]2)o1
18,159 to 162 °C,CCOC(=O)C(=Cc1c[nH]c2cc(C)ccc12)NC(C)=O
19,134 to 135 °C,COC(=O)[C@H]1[C@@H](NC(=O)OC(C)(C)C)C(=O)N1Cc1ccc(OC)cc1OC (relative stereo)
20,220 to 221 °C,O=C1Nc2ccccc2N(C(=O)CN2C(=O)CCCC2=O)C2CCC(Cc3ccccc3)C12 (stereo not drawn)
21,100 to 102 °C,CCOC(=O)C(C(=O)OCC)c1n[nH]c(C)c1[N+](=O)[O-]

row,melting point,SMILES
1,137 to 139 °C,CCOC(=O)C1=C(COCCNS(=O)(=O)N2CCN(C)CC2)NC(C)=C(C(=O)OC)C1c1ccccc1Cl (stereo not drawn)
2,250 to 252 °C,COc1ccc(C(=O)Nc2ccccc2)cc1NS(=O)(=O)c1cn(C)cn1
3,62 to 63 °C,CCCCCCCCCCOC(=O)c1nc(-c2ccc(Cl)cc2)c(F)c(N)c1Cl
4,256 to 258 °C,O=C(NC1CNCCn2c1nc(-c1ccncn1)cc2=O)c1ccccn1 (racemic)
5,138 to 140 °C,CC(C)c1cccc(C(C)C)c1NC(=O)CN1CCN(CCSc2nc3cccc(C(C)(C)C)c3o2)CC1
6,82 to 83 °C,Cc1ccccc1C(=O)c1c(C)nn(C)c1O
7,213 °C,CCOc1ccccc1C1CC(C(C)(C)C)=NN1c1ccc(C(=O)O)cc1 (stereo not drawn)
8,83 to 85 °C,CN(C)c1ccc(C(=O)CCCC2CCN(Cc3ccccc3)CC2)cc1
9,223 °C,CCN(CC)C(=O)CNC1(c2ccccc2Cl)C(=O)Nc2ccc(Cl)cc21 (stereo not drawn)
10,201 to 203 °C,CC(C)(C)[C@@H](CO)NC(=O)[C@@H](CC(=O)OCc1ccccc1)n1ccc(-c2ccc(-c3ccc(C(N)=O)cc3)cc2)c1
11,213 to 215 °C,CC(=O)Nc1nc(CCCN2CCN(C(c3ccccc3)c3ccccc3)CC2)cs1
12,90 to 92 °C,CCN(CC)CCOc1ccc(Nc2ncc3c(n2)N(C)C(=O)N(C2CCCCC2)C3)cc1
13,63 to 64 °C,COc1cc2c(cc1OCc1ccccc1)CCN(C(=O)c1cc(OC)c(OC)c(OC)c1)C2
14,128 to 131 °C,COc1ccc(Cc2cc(C3CCN(C(=O)NCc4ccccc4)CC3)nc(N)n2)cc1
15,151 to 153 °C,CCOC(=O)C1=C(CO)NC(SC)=NC1c1ccccc1SC (stereo not drawn)
16,> 270 °C,CC1=C([N+](=O)[O-])C(c2cccc(Cl)c2Cl)c2c[nH]nc2N1 (stereo not drawn)
17,173 to 174 °C,COc1ccc(S(=O)(=O)[C@H](CCCCc2ccccc2)[C@H](C(=O)O)C(C)C)cc1OC (relative stereo)
18,132 to 134 °C,COC(=O)NCCCn1c(-c2ccc(Br)cc2)csc1=Nc1ccccc1
19,210 to 212 °C,CC(C)=NOCc1nc2c(N)nc(C)c(C)c2n1CCCCN(C(N)=O)C1CCCCC1
20,149 to 154 °C,CN1C(=O)NC(=O)C1=Cc1cc(OCCCC(=O)N(C)C2CCCCC2)ccc1[N+](=O)[O-]
